Source: US5482923A, “Heparin neutralization with platelet factor 4 fragments” (Repligen Corporation, priority 1993, dated 1996)
Entries after “also recorded” stand apart in the source; their conditions may differ.

How the values were obtained:
Factor Xa = Factor Xa assay: prevention of heparin inhibition of Factor Xa; assay type: biochemical; conditions: for ability to prevent heparin inhibition of Factor Xa: in vitro; for restoration of Factor Xa activity: low concentrations
Source text: (§1) The lysine rich region of PF4 (residues 61-66) is also the domain associated with the binding of heparin by PF4. Heparin is known to play a role in modulating anglogenesis, which can also be affected by protamine, another well characterized heparin-binding protein. To assess the ability of PF4-based synthetic peptides to bind heparin, we assayed the activity of coagulation-cascade enzymes which are inhibited by heparin. The Factor Xa assay used here has previously been described in Denton et al., Biochem. J., 209:455-460 (1983).
PF4 isolated from platelets and recombinant E. coli cells were compared for their abilities to prevent heparin inhibition of Factor Xa (essential for the production of thrombin) in vitro.
The abilities of protamine and rPF4 to prevent heparin-inhibition of the coagulation enzyme Factor Xa were compared. The details of the assay are described by Denton et al, 1983, Biochem. J. 209:455. In the Factor Xa assay, 0.5 units of heparin inhibited enzymatic activity almost 90%.
Similar studies and results may be obtained using certain fragments of PF4 or rPF4 that include the heparin binding region, residues 61-66.

Sprague Dawley rats [1] = test: In vivo heparin neutralization in rats (APTT); parameters: species or system rat; conditions: for APTT after neutralizing agent: heparin 1 unit/g at t=0, agent at t=2 min, protamine sulfate 1 ug/g, PF4 7.5 ug/g, read at t=10 min
Description: (§2) In Vivo experiments were performed on rats to compare the heparin neutralizing activity of protamine and PF4 and to investigate the effect of PF4 on platelet and white blood cell count.
(§3) Sprague Dawley rats (225 g) were anesthetized with pentobarbital, the trachea was intubated, and the right femoral vein and carotid artery were cannulated. The intravenous infusion of heparin was followed by infusion of either protamine or rPF4. Arterial blood samples were taken prior to and immediately after heparin infusion and at several time points following the infusion of the neutralizing agent. Controls were conducted with Ringer's solution in place of heparin and the experimental agents. Samples were used for the following determinations: clotting time, platelet count, and white blood cell count.
(§4) Referring to FIGS. 1 and 2, data are shown from a typical experiment comparing the platelet count, white blood cell count and the APTT in rats when injected with heparin followed by protamine sulfate (FIG. 1) and when injected with heparin followed by rPF4 (FIG. 2). In these Figs., heparin was injected at t=0 and either protamine sulfate or rPF4 injected two minutes thereafter (t=2 minutes). The dosages used were: heparin 1 unit/g animal wt.; protamine sulfate 1 ug/g animal wt.; and PF4 7.5 ug/g animal wt.
Referring now to FIGS. 3 to 5, statistical bar graph data are shown comparing APTT, platelet count, (PC) and white blood cell (WBC) count in rats injected with a control solution, Ringers solution (FIG. 3), injected with heparin followed by protamine sulfate (FIG. 4) and injected with heparin followed by rPF4 (FIG. 5). […]
Samples A were taken before injection; samples B, 2 min after heparin injection; samples C, 10 min after heparin and 8 min after protamine sulfate injection; and samples D, 18 min after heparin injection. Data represent mean values and S.E.M. from experiments except that white blood cells and platelets were counted only in 3 samples taken at 2 and at 18 min after heparin injection. […]

normal human plasma = test: Neutralization of heparin in human plasma (APTT); conditions: 1 unit/ml of heparin; for restoring the APTT to its heparin-free level: added during the incubation before activated thromboplastin
Source text: Neutralization of heparin in human plasma was also examined. The activated partial thromboplastin time (APTT) of normal human plasma was increased from its base level of approximately 30 seconds to 195 seconds by the addition of 1 unit/ml of heparin.

Sprague Dawley rats [2] = test: In vivo effect on platelet count, white blood cell count and hematocrit in heparinized rats; parameters: species or system rat; conditions: low doses of rPF4 (150 μg/100g); three experiments
thrombin = test: Prevention of heparin inhibition of thrombin, conditions similar to the Factor Xa experiments; assay type: biochemical; conditions: for prevention of heparin inhibition of thrombin: 1 μM; for ability to prevent heparin inhibition of thrombin: in vitro
Source text: as §1
In experiments carried out under conditions similar to the Factor Xa experiments, thrombin was inhibited 99% by 0.25 units of heparin.

Sprague Dawley rats [3] = test: In vivo effect on platelet count, white blood cell count and hematocrit in heparinized rats; parameters: species or system rat; conditions: for platelet count, % of initial: after heparin followed by neutralizing agent, FIGS. 4 and 5; for hematocrit levels: conditions as for FIGS. 1 and 2; for change of platelet and white blood cell counts: heparin 100 units/100 g followed by protamine sulfate 100 μg/100 g or rPF4 7.5 μg/g; for white blood cell count / platelet count: t=10 minutes, 8 min after agent, protamine sulfate 1 ug/g, PF4 7.5 ug/g; for white blood cell count: protamine sulfate group over 5 at t=0; for platelet count: t=0: protamine sulfate over 800, rPF4 700
Description: as §2, §3, §4
Experiments were also conducted to investigate hematocrit levels under conditions as described with respect to FIGS. 1 and 2. No change in hematocrit levels were observed when either PF4 or protamine were used for heparin neutralization.
Referring now to FIGS. 3 to 5, statistical bar graph data are shown comparing APTT, platelet count, (PC) and white blood cell (WBC) count in rats injected with a control solution, Ringers solution (FIG. 3), injected with heparin followed by protamine sulfate (FIG. 4) and injected with heparin followed by rPF4 (FIG. 5). The data included control rats, five rats injected with heparin followed by protamine sulfate and two rats injected with heparin followed by rPF4.
Samples A were taken before injection; samples B, 2 min after heparin injection; samples C, 10 min after heparin and 8 min after protamine sulfate injection; and samples D, 18 min after heparin injection. Data represent mean values and S.E.M. from experiments except that white blood cells and platelets were counted only in 3 samples taken at 2 and at 18 min after heparin injection. […] The decrease was statistically significant (p<0.01) as compared to samples obtained before heparin injection.
Data represent mean values and S.E.M. from 2 experiments for samples taken at times A-D as indicated in the discussion above with respect to FIG. 4.

Row | Substance | preventing Factor Xa inhibition, compared with protamine (Factor Xa; concentrations greater than 1 μM, 0.5 units of heparin) | ability to prevent heparin inhibition of Factor Xa (Factor Xa) | restoration of Factor Xa activity (Factor Xa; 0.5 units of heparin) | APTT after neutralizing agent (Sprague Dawley rats [1]) | neutralization of the anticoagulant effect of heparin (Sprague Dawley rats [1]; low doses of rPF4 (150 μg/100g), three experiments) | restoring the APTT to its heparin-free level (normal human plasma) | effect on platelets and white blood cells (Sprague Dawley rats [2]) | prevention of heparin inhibition of thrombin (thrombin; 0.25 units of heparin) | molar dose responses, rPF4 compared with protamine (thrombin; 0.25 units of heparin) | ability to prevent heparin inhibition of thrombin (thrombin) | platelet count, % of initial (Sprague Dawley rats [3]) [%] | hematocrit levels (Sprague Dawley rats [3]) | change of platelet and white blood cell counts (Sprague Dawley rats [3]) | white blood cell count (Sprague Dawley rats [3]) | platelet count (Sprague Dawley rats [3]) | inhibition of Factor Xa enzymatic activity (Factor Xa; 0.5 units of heparin) [%] | activated partial thromboplastin time (APTT) (normal human plasma; base level approximately 30 seconds) [s] | inhibition of thrombin (thrombin; 0.25 units of heparin) [%] | WBC count (Sprague Dawley rats [3]; after heparin followed by protamine sulfate, FIG. 4) | respiratory problems (Sprague Dawley rats [3]; heparin 1 unit/g followed by protamine sulfate 1 ug/g)
1 | rPF4: Recombinant native sequence human platelet factor 4, 70 residues, produced in E. coli as a fusion protein and cleaved with CNBr | clearly more effective in preventing Factor Xa inhibition | able to prevent the heparin inhibition of thrombin and Factor Xa at approximately equimolar concentrations | partially restored Factor Xa activity | restoration of normal APTT levels | partially neutralized | equally effective in restoring the APTT to its heparin-free level | no effect on platelets and white blood cells | completely prevented heparin inhibition | no significant difference in their molar dose responses | able to prevent the heparin inhibition of thrombin and Factor Xa at approximately equimolar concentrations | 89±4.9 | No change | did not lead to the extensive depletion of platelet and white blood cells; also recorded: did not produce a statistical decrease in platelet and white blood count | about 4 ×10^3 /μl | about 500 ×10^3 /μl |  |  |  |  | 
2 | heparin [reference compound] |  |  |  |  |  |  |  |  |  |  |  |  |  |  |  | ~90 | 195 | 99 |  | 
3 | protamine |  | able to prevent the heparin inhibition of thrombin and Factor Xa at approximately equimolar concentrations | partially restored Factor Xa activity | decrease in the APTT to approximately normal levels after about 10 minutes |  | equally effective in restoring the APTT to its heparin-free level |  | completely prevented heparin inhibition | no significant difference in their molar dose responses | able to prevent the heparin inhibition of thrombin and Factor Xa at approximately equimolar concentrations | 48±12.2 | No change | significant decrease of white blood cell count and platelet count; also recorded: drop in platelet and white blood cell counts | less than 3 ×10^3 /μl | less than 500 ×10^3 /μl |  |  |  | decreased | These rats also had respiratory problems
4 | C-13: C-13 peptide of PF4, a PF4-based synthetic peptide (PLYKKIIKKLLES; UniProt P02776 89-101, looked up, fragment) |  |  |  |  |  |  |  |  |  | unable to prevent the inhibition of thrombin even at concentrations ten times that of an effective level of rPF4 |  |  |  |  |  |  |  |  |  | 
5 | C-41: The 41 amino acid C-terminal peptide of PF4 (IKAGPHCPTAQLIATLKNGRKICLDLQAPLYKKIIKKLLES; UniProt P02776 61-101, looked up, fragment) |  | prevented heparin inhibition less effectively; also recorded: demonstrated the ability to neutralize heparin in vitro |  |  |  |  |  |  |  | prevented heparin inhibition less effectively |  |  |  |  |  |  |  |  |  | 
